Laboratory results from patent publication US6599894B1, “Amidinobenzylamine derivatives and their use as thrombin inhibitors” (AstŕaZeneca AB, priority 1999, dated 2003).

Experiment: Test E: determination of thrombin time ex vivo (bioavailability of active inhibitor after prodrug administration)
Settings: conscious rat, estimated from thrombin time or ecarin clotting time in plasma
Excerpt: Determination of Thrombin Time Ex Vivo
The inhibition of thrombin after oral or parenteral administration of the compounds of formula I, dissolved in ethanol:Solutol™:water (5:5:90), were examined in conscious rats which, one or two days prior to the experiment, were equipped with a catheter for blood sampling from the carotid artery. On the experimental day blood samples were withdrawn at fixed times after the administration of the compound into plastic tubes containing 1 part sodium citrate solution (0.13 mol per L) and 9 parts of blood. The tubes were centrifuged to obtain platelet poor plasma. The plasma was used for determination of thrombin time or ecarin clotting time (ECT) as described below.
The citrated rat plasma, 100 μL, was diluted with a saline solution, 0.9%, 100 μL, and plasma coagulation was started by the addition of human thrombin (T 6769, Sigma Chem Co, USA or Hematologic Technologies) in a buffer solution, pH 7.4, 100 μL, or ecarin (Pentapharm). The clotting time was measured in an automatic device (KC 10, Amelung, Germany).
[(AUCpd/dose)/(AUCactive,parenteral/dose]×100

Row | Compound | oral and/or parenteral bioavailability as the corresponding active inhibitor (free amidine)
1 | CON=C(N)c1ccc(CNC(=O)[C@@H]2CCN2C(=O)C(O)c2cc(Cl)cc(N(C)C)c2)cc1 (single isomer, unassigned) [Example 12, Ph(3-Cl,5-NMe2)-(R) or-(S)CH(OH)C(O)-Aze-Pab(OMe)] | exhibit oral and/or parenteral bioavailability in the rat
2 | CON=C(N)c1ccc(CNC(=O)C2CCN2C(=O)C(O)c2cc(Cl)cc(N(C)C(C)=O)c2)cc1.O=C(O)C(F)(F)F (single isomer, unassigned) [Example 18, Ph(3-Cl,5-NMeAc)-(R) or-(S)CH(OH)C(O)-Aze-Pab(OMe)×TFA] | exhibit oral and/or parenteral bioavailability in the rat
3 | CON=C(N)c1ccc(CNC(=O)C2CCN2C(=O)C(O)c2cccc(N3CCCC3=O)c2)cc1.O=C(O)C(F)(F)F (single isomer, unassigned) [Example 19, Ph(3-(1-Pyrrolidin-2-one))-(R) or-(S)CH(OH)C(O)-Aze-Pab(OMe)×TFA] | exhibit oral and/or parenteral bioavailability in the rat
4 | CON=C(N)c1ccc(CNC(=O)C2CCN2C(=O)C(O)c2cccc(N(C)C)c2)cc1 [Example 2, Ph(3-N(Me)2)-(R)- or-(S)CH(OH)—CO-Aze-Pab(OMe)] | exhibit oral and/or parenteral bioavailability in the rat
5 | Ph(3-Cl,5-NMe2)-(R) or -(S)CH(OH)C(O)-Aze-Pab(O-Et) [Example 13] | exhibit oral and/or parenteral bioavailability in the rat
6 | Ph(3-Cl,5-NMe2)-(R) or -(S)CH(OH)C(O)-Aze-Pab(O-i-Pr) [Example 15] | exhibit oral and/or parenteral bioavailability in the rat
